This note sets out measurements from patent publication US11312727B1, “Macrocyclic flu endonuclease inhibitors” (Janssen BioPharma, Inc., priority 2018, dated 2022).

As usually defined, the CC50 is the concentration at which the toxic effect on the cells reaches its halfway point. A high value points to better tolerance by the cells. By EC50 is commonly meant the concentration needed to bring the measured effect to its halfway point.

A short description of one series: in vitro. The settings on record: human, CC50, uninfected A549 cells, CellTiter-Glo. (In ATP-based viability assays light output follows the ATP content of the culture.)
Series [1] relates to Influenza strain A549 A/WSN/33 (H1N1). The series can be described thus: microbe, parasite or virus in culture. The conditions noted are these: Influenza A virus, A549, 20 h, A549 cells, influenza A/WSN/33 (H1N1), 20 hours incubation; read-out: A549_A(H1N1) EC50. It counts as cell-based.

As for `O=C1c2c(O)c(=O)ccn2N2CN1CCCCOc1ccc(F)cc1[C@H]2c1ccccc1` (single isomer, unassigned) [Compound 30A, (18*R)-2-fluoro-12-hydroxy-18-phenyl-6,7,8,9-tetrahydro-18H-10,17-methanobenzo[b]pyrido[1,2-f][1]oxa[5,6,9]triazacyclotridecine-11,13-dione], the 50% cytotoxic concentration (CC50) in the series “in vitro” is more than 2 µM. Also, the EC50 in series [1] is more than 1 µM.
Consider `O=C1c2c(O)c(=O)ccn2N2CN1CC[C@H]1C[C@@H]1COc1cccc3c1[C@H]2c1ccccc1SC3` (single isomer, unassigned) [Compound 131BB, (1*S,13*R,15*S)-7-hydroxy-17-oxa-24-thia-2,3,10-triazaheptacyclo[16.12.1.12,10.03,8.013,15.022,31.025,30]dotriaconta-4,18,20,22(31),25(30),26,28-heptaene-6,9-dione], for which the CC50 in the series “in vitro” was more than 0.2 µM. Further, the EC50 in series [1] is more than 0.1 µM.
`O=C1c2c(O)c(=O)ccn2N2CN1C[C@@H]1C[C@@H]1COc1cccc3c1[C@H]2c1ccccc1SC3` (single isomer, unassigned) [Compound 118AB, (1a*S,11b*S,20a*R)-17-hydroxy-1a,2,6,11b,17,17a,20,20a-octahydro-1H-5,4-(epiprop[1]en[1]yl[3]ylidene)-12,19-methanobenzo[6,7]thiepino[4,5-c]cyclopropa[k]pyrido[1,2-f][1]oxa[5,6,9]triazacyclotridecine-16,18-dione] gave a 50% cytotoxic concentration (CC50) in “in vitro” of more than 0.2 µM. Besides, the half-maximal effective concentration (EC50) in series [1] was 0.01 µM.
On to `O=C1c2c(O)c(=O)ccn2N2CN1C/C=C\COc1cc(F)c(F)cc1[C@@H]2c1ccccc1` (single isomer, unassigned) [Compound 41B, (18*S,Z)-2,3-difluoro-12-hydroxy-18-phenyl-6,9-dihydro-18H-10,17-methanobenzo[b]pyrido[1,2-f][1]oxa[5,6,9]triazacyclotridecine-11,13-dione], for which, in “in vitro”, the cytotoxic concentration (CC50) is more than 2 µM. Besides, the EC50 in series [1] amounted to 0.006 µM.
The like results for `O=C1c2c(O)c(=O)ccn2N2CN1C/C=C/CCc1cc(F)c(F)cc1[C@H]2c1ccccn1` (single isomer, unassigned) [Compound 58B, (16*S,E)-13,14-difluoro-4-hydroxy-16-(pyridin-2-yl)-7,10,11,16-tetrahydro-6,17-methanobenzo[k]pyrido[1,2-b][1,2,5]triazacyclotridecine-3,5-dione] were, in that order, more than 2 µM and more than 1 µM.
The like results for `O=C1c2c(O)c(=O)ccn2N2CN1C/C=C/COc1cc(F)c(F)c3c1[C@@H]2c1ccccc1SC3` (single isomer, unassigned) [Compound 140A, (17a*R,*E)-24,25-difluoro-12-hydroxy-2,6,9,17a-tetrahydro-3,4-(epiprop[1]en[1]yl[3]ylidene)-10,17-methanobenzo[6,7]thiepino[4,5-c]pyrido[1,2-f][1]oxa[5,6,9]triazacyclotridecine-11,13-dione] were, in that order, 9.96 µM and 0.0963 µM.
The like results for `O=C1c2c(O)c(=O)ccn2N2CN1C1(/C=C/COc3c(Cl)cccc3[C@@H]2c2ccccc2)CC1` (single isomer, unassigned) [Compound 96B] were, in that order, more than 1 µM and more than 0.5 µM.
For the compound `O=C1c2c(O)c(=O)ccn2N2CN1CCCCCCc1ccccc1C2c1ccccc1` (stereo not drawn) [Compound 2, 15-hydroxy-2-phenyl-12,13,14,16-tetrahydro-11H-1(1,3)-pyrido[2,1-f][1,2,4]triazina-3(1,2)-benzenacyclononaphane-14,16-dione], the cytotoxic concentration (CC50) in the series “in vitro” was more than 20 µM. For the same compound, in series [1], the EC50 worked out at 0.354 µM.
In the same order, the values of `CC[C@@H]1/C=C/COc2c(ccc(F)c2F)[C@H](c2ccccc2)N2CN1C(=O)c1c(O)c(=O)ccn12` [Compound 101BB, (9R,18S,E)-9-ethyl-3,4-difluoro-12-hydroxy-18-phenyl-6,9-dihydro-18H-10,17-methanobenzo[b]pyrido[1,2-f][1]oxa[5,6,9]triazacyclotridecine-11,13-dione] are 29.9 µM and 5.03 µM.
